Measured values published in patent US20180250280A1 (BAYER PHARMA AKTIENGESELLSCHAFT, priority 2015, published 2018).
pIC50: −log10 of the molar value.

Tests used:
human plasma kallikrein = biological target: T1, human plasma kallikrein (Homo sapiens, UniProt P03952); assay: Determination of the plasma kallikrein activity (fluorogenic peptide substrate, AMC cleavage); type: biochemical; settings: plasma kallikrein from Kordia 0.6 nM; substrate H-Pro-Phe-Arg-AMC 10 μM; 30 min at 22° C.; in some cases averages from multiple determinations
T1 construct: purchased Kordia
Procedure: (§1) To determine the plasma kallikrein inhibition of the substances according to the invention, a biochemical test system is used which utilizes the reaction of a peptidic plasma kallikrein substrate to determine the enzymatic activity of human plasma kallikrein. Here, plasma kallikrein cleaves from the peptic plasma kallikrein substrate the C-terminal aminomethylcoumarin (AMC), the fluorescence of which is measured. The determinations are conducted in microtitre plates.
Test substances are dissolved in dimethyl sulfoxide and serially diluted in dimethyl sulfoxide (3000 μM to 0.0078 μM; resulting final concentrations in the test: 50 μM to 0.00013 μM). 1 μl of the diluted substance solutions is placed into each of the wells of white microtitre plates from Greiner (384 wells). 20 μl of assay buffer (50 mM Tris/HCl pH 7.4; 100 mM sodium chloride solution; 5 mM calcium chloride solution; 0.1% of bovine serum albumin) and 20 μl of plasma kallikrein from Kordia (0.6 nM in assay buffer) are then added successively. After 15 min of incubation, the enzyme reaction is started by addition of 20 μl of the substrate H-Pro-Phe-Arg-AMC dissolved in assay buffer (10 μM in assay buffer) from Bachem, the mixture is incubated at room temperature (22° C.) for 30 min and fluorescence is then measured (excitation: 360 nm, emission: 460 nm). The measured emissions of the test batches with test substance are compared to those of control batches without test substance (only dimethyl sulfoxide instead of test substance in dimethyl sulfoxide), and IC50 values are calculated from the concentration/activity relationships. Activity data from this test are given in Table B below (in some cases as averages from multiple individual determinations): […]

human factor XIa = biological target: T2, human factor XIa (Homo sapiens, UniProt P03951); assay: Measurement of FXIa inhibition (fluorogenic peptide substrate, AMC cleavage); type: biochemical; settings: factor XIa from Kordia 0.45 nM; substrate Boc-Glu(OBzl)-Ala-Arg-AMC 10 μM; 30 min at 22° C.; in some cases averages from multiple determinations
T2 construct: purchased Kordia
Procedure: as §1, with “The factor XIa” for “To determine the plasma kallikrein”, “invention is determined using” for “invention,”, “system” for “system is used”, “factor XIa” for “plasma kallikrein”, “factor XIa.” for “plasma kallikrein.”
Test substances are dissolved in dimethyl sulfoxide and serially diluted in dimethyl sulfoxide (3000 μM to 0.0078 μM; resulting final concentrations in the test: 50 μM to 0.00013 μM). 1 μl of the diluted substance solutions is placed into each of the wells of white microtitre plates from Greiner (384 wells). 20 μl of assay buffer (50 mM of Tris/HCl pH 7.4; 100 mM of sodium chloride; 5 mM of calcium chloride; 0.1% of bovine serum albumin) and 20 μl of factor XIa from Kordia (0.45 nM in assay buffer) are then added successively. After 15 min of incubation, the enzyme reaction is started by addition of 20 μl of the factor XIa substrate Boc-Glu(OBzl)-Ala-Arg-AMC dissolved in assay buffer (10 μM in assay buffer) from Bachem, the mixture is incubated at room temperature (22° C.) for 30 min and fluorescence is then measured (excitation: 360 nm, emission: 460 nm). The measured emissions of the test batches with test substance are compared to those of control batches without test substance (only dimethyl sulfoxide instead of test substance in dimethyl sulfoxide), and IC50 values are calculated from the concentration/activity relationships. Activity data from this test are given in Table A below (in some cases as averages from multiple individual determinations): […]

T2 sequence (P03951 388-625 limits assumed): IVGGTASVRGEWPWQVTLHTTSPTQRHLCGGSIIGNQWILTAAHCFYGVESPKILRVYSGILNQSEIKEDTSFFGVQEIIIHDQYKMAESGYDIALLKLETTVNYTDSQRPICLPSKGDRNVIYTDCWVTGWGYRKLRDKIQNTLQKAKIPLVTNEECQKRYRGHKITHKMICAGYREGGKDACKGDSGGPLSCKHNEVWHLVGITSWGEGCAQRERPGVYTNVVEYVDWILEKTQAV
T2 sequence (P03951 19-387 partner limits assumed): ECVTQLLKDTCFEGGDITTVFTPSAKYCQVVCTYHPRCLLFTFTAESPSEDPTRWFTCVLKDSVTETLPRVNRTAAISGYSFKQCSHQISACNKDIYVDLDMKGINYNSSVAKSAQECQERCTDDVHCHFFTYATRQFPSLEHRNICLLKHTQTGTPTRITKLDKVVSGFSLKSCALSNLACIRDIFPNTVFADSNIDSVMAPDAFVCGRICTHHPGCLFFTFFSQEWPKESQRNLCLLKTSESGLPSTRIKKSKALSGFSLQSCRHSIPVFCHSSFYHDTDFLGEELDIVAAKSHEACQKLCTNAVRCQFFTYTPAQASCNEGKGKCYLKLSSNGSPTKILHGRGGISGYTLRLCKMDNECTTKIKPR
T1 sequence (P03952 391-638 limits assumed): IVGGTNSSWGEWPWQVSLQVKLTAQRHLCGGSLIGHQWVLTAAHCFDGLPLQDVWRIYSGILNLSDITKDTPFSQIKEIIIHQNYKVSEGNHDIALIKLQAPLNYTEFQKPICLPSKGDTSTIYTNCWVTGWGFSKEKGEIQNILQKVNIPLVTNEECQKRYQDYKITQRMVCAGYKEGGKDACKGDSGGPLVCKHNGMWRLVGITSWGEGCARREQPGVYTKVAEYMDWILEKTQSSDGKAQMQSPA
T1 sequence (P03952 20-390 partner limits assumed): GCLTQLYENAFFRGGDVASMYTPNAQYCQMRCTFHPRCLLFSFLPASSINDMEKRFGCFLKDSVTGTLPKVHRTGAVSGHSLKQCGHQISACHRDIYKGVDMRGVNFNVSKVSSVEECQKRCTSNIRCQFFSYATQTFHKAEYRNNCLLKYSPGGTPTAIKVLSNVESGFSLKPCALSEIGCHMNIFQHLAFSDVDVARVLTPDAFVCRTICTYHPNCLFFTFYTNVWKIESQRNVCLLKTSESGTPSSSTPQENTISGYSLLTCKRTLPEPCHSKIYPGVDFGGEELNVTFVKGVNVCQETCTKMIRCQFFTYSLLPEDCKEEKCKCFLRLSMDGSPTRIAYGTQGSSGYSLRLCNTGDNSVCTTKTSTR

SMILES	pIC50 (human plasma kallikrein)	pIC50 (human factor XIa)
COc1cc(NC(=O)[C@H](CCOC(C)(C)C)n2cc(OC)c(-c3cc(Cl)ccc3OCC(F)(F)F)cc2=O)ccc1C(=O)O (single isomer, unassigned) [Example 70, 4-{[4-tert-Butoxy-2-{4-[5-chloro-2-(2,2,2-trifluoroethoxy)phenyl]-5-methoxy-2-oxopyridin-1(2H)-yl}butanoyl]amino}-2-methoxybenzoic acid]	7.24	8.89
CNC(=O)c1ccc(NC(=O)C(CCOC2(C)CCC2)n2cc(OC)c(-c3cc(Cl)ccc3OCC(F)(F)F)cc2=O)cn1 (racemic) [Example 57, 5-[[2-[4-[5-Chloro-2-(2,2,2-trifluoroethoxy)phenyl]-5-methoxy-2-oxo-1-pyridyl]-4-(1-methylcyclobutoxy)butanoyl]amino]-N-methylpyridine-2-carboxamide]	7.27	7.85
CNC(=O)c1ccc(NC(=O)C(CC2COCCO2)n2cc(OC)c(-c3cc(Cl)ccc3OCC(F)F)cc2=O)cn1 (centres unmarked) [Example 31, 5-{[2-{4-[5-Chloro-2-(2,2-difluoroethoxy)phenyl]-5-methoxy-2-oxopyridin-1(2H)-yl}-3-(1,4-dioxan-2-yl)propanoyl]amino}-N-methylpyridine-2-carboxamide]	6.92	8.15
CCNC(=O)c1ccc(NC(=O)C(CCOC2(C)CCC2)n2cc(OC)c(-c3cc(Cl)ccc3OCC(F)(F)F)cc2=O)cn1 (racemic) [Example 61, 5-[[2-[4-[5-Chloro-2-(2,2,2-trifluoroethoxy)phenyl]-5-methoxy-2-oxo-1-pyridyl]-4-(1-methylcyclobutoxy)butanoyl]amino]-N-ethylpyridine-2-carboxamide]	6.82	7.37
COc1cn(C(C[C@@H]2CCCCO2)C(=O)Nc2ccc(C(=O)O)cc2)c(=O)cc1-c1cc(Cl)ccc1OCC(F)(F)F (single isomer, unassigned) [Example 50]	7.72	9.39
CCCC(C(=O)Nc1ccc(C(N)=O)nc1)n1cc(OC)c(-c2cc(Cl)ccc2OCC(F)(F)F)cc1=O (racemic) [Example 68, 5-{[2-{4-[5-Chloro-2-(2,2,2-trifluoroethoxy)phenyl]-5-methoxy-2-oxopyridin-1(2H)-yl}pentanoyl]amino}pyridine-2-carboxamide]	6.60	7.43
COc1cn(C(CCOC(C)C)C(=O)Nc2ccc(C(N)=O)c(F)c2)c(=O)cc1-c1cc(Cl)ccc1OCC(F)(F)F (racemic) [Example 41, 4-[(2-{4-[5-Chloro-2-(2,2,2-trifluoroethoxy)phenyl]-5-methoxy-2-oxopyridin-1(2H)-yl}-4-isopropoxybutanoyl)amino]-2-fluorobenzamide]	6.89	7.60
COCCC(C(=O)Nc1ccc(C(=O)O)cc1)n1cc(OC)c(-c2cc(Cl)ccc2OCC(F)(F)F)cc1=O (racemic) [Example 1, 4-[(2-{4-[5-Chloro-2-(2,2,2-trifluoroethoxy)phenyl]-5-methoxy-2-oxopyridin-1(2H)-yl}-4-methoxybutanoyl)amino]benzoic acid]	7.26	8.92
COc1cn(C(CCOC(F)(F)F)C(=O)Nc2ccc(C(N)=O)c(F)c2)c(=O)cc1-c1cc(Cl)ccc1OCC(F)(F)F (racemic) [Example 42, 4-{[2-{4-[5-Chloro-2-(2,2,2-trifluoroethoxy)phenyl]-5-methoxy-2-oxopyridin-1(2H)-yl}-4-(trifluoromethoxy)butanoyl]amino}-2-fluorobenzamide]	6.72	7.54
COc1cn(C(CCOC(C)(C)C)C(=O)Nc2ccc(C(=O)O)s2)c(=O)cc1-c1cc(Cl)ccc1OCC(F)(F)F (racemic) [Example 75, 5-{[4-tert-Butoxy-2-{4-[5-chloro-2-(2,2,2-trifluoroethoxy)phenyl]-5-methoxy-2-oxopyridin-1(2H)-yl}butanoyl]amino}thiophene-2-carboxylic acid]	7.72	8.60
COc1cc(NC(=O)C(CCOC(C)(C)C)n2cc(OC)c(-c3cc(Cl)ccc3OCC(F)(F)F)cc2=O)ccc1C(=O)O (racemic) [Example 74, 4-{[4-tert-Butoxy-2-{4-[5-chloro-2-(2,2,2-trifluoroethoxy)phenyl]-5-methoxy-2-oxopyridin-1(2H)-yl}butanoyl]amino}-2-methoxybenzoic acid]	6.68	8.16

Further compounds by rising pIC50 (human plasma kallikrein), results first:

pIC50 (human plasma kallikrein)	pIC50 (human factor XIa)	SMILES
6.47	7.47	COc1cn(C(C[C@H]2CCCCO2)C(=O)Nc2ccc(C(N)=O)c(F)c2)c(=O)cc1-c1cc(Cl)ccc1OCC(F)(F)F (stereo partly drawn) [Example 23, 4-[(2-{4-[5-Chloro-2-(2,2,2-trifluoroethoxy)phenyl]-5-methoxy-2-oxopyridin-1(2H)-yl}-3-[(2R)-tetrahydro-2H-pyran-2-yl]propanoyl)amino]-2-fluorobenzamide]
6.49	8.52	COc1cn(C(CC2COCCO2)C(=O)Nc2ccc(C(=O)O)cc2)c(=O)cc1-c1cc(Cl)ccc1OCCF (centres unmarked) [Example 44, 4-{[2-{4-[5-Chloro-2-(2-fluoroethoxy)phenyl]-5-methoxy-2-oxopyridin-1(2H)-yl}-3-(1,4-dioxan-2-yl)propanoyl]amino}benzoic acid]
6.51	7.54	COc1cn(C(CC2COCCO2)C(=O)Nc2ccc(C(N)=O)c(F)c2)c(=O)cc1-c1cc(Cl)ccc1OCCF (centres unmarked) [Example 47, 4-{[2-{4-[5-Chloro-2-(2-fluoroethoxy)phenyl]-5-methoxy-2-oxopyridin-1(2H)-yl}-3-(1,4-dioxan-2-yl)propanoyl]amino}-2-fluorobenzamide]
6.68	8.03	COc1cn(C(C[C@@H]2CCCCO2)C(=O)Nc2ccc(C(N)=O)c(F)c2)c(=O)cc1-c1cc(Cl)ccc1OCC(F)(F)F (stereo partly drawn) [Example 53, 4-[(2-{4-[5-Chloro-2-(2,2,2-trifluoroethoxy)phenyl]-5-methoxy-2-oxopyridin-1(2H)-yl}-3-[(2S)-tetrahydro-2H-pyran-2-yl]propanoyl)amino]-2-fluorobenzamide]
6.89	7.44	COc1cn(C(CC2=NOCCC2)C(=O)Nc2ccc3nn(C)cc3c2)c(=O)cc1-c1cc(Cl)ccc1OCC(F)(F)F (racemic) [Example 24, 2-{4-[5-Chloro-2-(2,2,2-trifluoroethoxy)phenyl]-5-methoxy-2-oxopyridin-1(2H)-yl}-3-(5,6-dihydro-4H-1,2-oxazin-3-yl)-N-(2-methyl-2H-indazol-5-yl)propanamide]
7.09	8.29	CNC(=O)c1ccc(NC(=O)C(C[C@@H]2CCCCO2)n2cc(OC)c(-c3cc(Cl)ccc3OCC(F)(F)F)cc2=O)cn1 (stereo partly drawn) [Example 52, 5-[(2-{4-[5-Chloro-2-(2,2,2-trifluoroethoxy)phenyl]-5-methoxy-2-oxopyridin-1(2H)-yl}-3-[(2S)-tetrahydro-2H-pyran-2-yl]propanoyl)amino]-N-methylpyridine-2-carboxamide]
7.35	8.72	COc1cn(C(CCOC(C)C)C(=O)Nc2ccc(C(=O)O)cc2)c(=O)cc1-c1cc(Cl)ccc1OCC(F)(F)F (racemic) [Example 34, 4-[(2-{4-[5-Chloro-2-(2,2,2-trifluoroethoxy)phenyl]-5-methoxy-2-oxopyridin-1(2H)-yl}-4-isopropoxybutanoyl)amino]benzoic acid]
7.42	8.47	CNC(=O)c1ccc(NC(=O)C(CC2COCCO2)n2cc(OC)c(-c3cc(Cl)ccc3OCC(F)(F)F)cc2=O)cn1 (centres unmarked) [Example 19, 5-{[2-{4-[5-Chloro-2-(2,2,2-trifluoroethoxy)phenyl]-5-methoxy-2-oxopyridin-1(2H)-yl}-3-(1,4-dioxan-2-yl)propanoyl]amino}-N-methylpyridine-2-carboxamide]
